Our source for the EC50 values is patent publication US8722929B2, “N-[2-amino-4-(phenylmethoxy)phenyl] amides and related compounds as potassium channel modulators” (Valeant Pharmaceuticals International, priority 2006, dated 2014).

Where two headings read alike, the source gives them in different places.

The target in this experiment is T1, KCNQ 2/3 (Rattus norvegicus, UniProt O88943+O88944).
T1 construct: endogenous in cells; host or cells: PC-12 cells differentiated with NGF
The experiment in a line: KCNQ 2/3 activator assay by rubidium (Rb+) efflux from NGF-differentiated PC-12 cells. Format: cell-based. How it is done:
Compounds of the following formula were assayed as KCNQ 2/3 activators by measuring rhubidium release.
PC-12 cells were grown at 37° C. and 5% CO2 in DMEM/F12 Medium supplemented with 10% horse serum, 5% fetal bovine serum, 2 mM glutamine, 100 U/ml penicillin, 100 U/ml streptomycin. They were plated in poly-D-lysine-coated 96-well cell culture microplates at a density of 40,000 cells/well and differentiated with 100 ng/ml NGF-7s for 2-5 days. For the assay, the medium was aspirated and the cells were washed once with 0.2 ml in wash buffer (25 mM Hepes, pH 7.4, 150 mM NaCl, 1 mM MgCl2, 0.8 mM NaH2PO4, 2 mM CaCl2). The cells were then loaded with 0.2 ml Rb^+ loading buffer (wash buffer plus 5.4 mM […], 5 mM glucose) and incubated at 37° C. for 2 h. Attached cells were quickly washed three times with buffer (same as Rb^+ loading buffer, but containing 5.4 mM KCl instead of RbCl) to remove extracellular Rb^+. Immediately following the wash, 0.2 ml of depolarization buffer (wash buffer plus 15 mM KCl) with or without compounds was added to the cells to activate efflux of potassium ion channels. After incubation for 10 min at room temperature, the supernatant was carefully removed and collected. Cells were lysed by the addition of 0.2 ml of lysis buffer (depolarization buffer plus 0.1% Triton X-100) and the cell lysates were also collected. If collected samples were not immediately analyzed for Rb^+ contents by atomic absorption spectroscopy (see below), they were stored at 4° C. without any negative effects on subsequent Rb^+ analysis.
The concentration of Rb^+ in the supernatants (Rb^+ sup) and cell lysates (Rb^+Lys) was quantified using an ICR8000 flame atomic absorption spectrometer (Aurora Biomed Inc., Vancouver, B.C.) under conditions defined by the manufacturer. One 0.05 ml samples were processed automatically from microtiter plates by dilution with an equal volume of Rb^+ sample analysis buffer and injection into an air-acetylene flame. The amount of Rb^+ in the sample was measured by absorption at 780 nm using a hollow cathode lamp as light source and a PMT detector. A calibration curve covering the range 0-5 mg/L Rb^+ in sample analysis buffer was generated with each set of plates. The percent Rb^+ efflux (F) was defined by F=[Rb^+Sup/(Rb^+Sup+Rb^+Lys)]×100%
The effect (E) of a compound was defined by: E=[(Fc−Fb)/(Fs−Fb)]×100% where the Fc is the efflux in the presence of compound in depolarization buffer, Fb is the efflux in basal buffer, and Fs is the efflux in depolarization buffer, and Fc is the efflux in the presence of compound in depolarization buffer. The effect (E) and compound concentration relationship was plotted to calculate an EC50 value, a compound's concentration for 50% of maximal Rb^+ efflux.

Where [1] appears, read: Rb+ efflux, PC-12 cells, depolarization buffer 15 mM KCl, 10 min, compounds of formula A, read-out: EC50.
The mark [2] stands for this setting: Rb+ efflux, PC-12 cells, depolarization buffer 15 mM KCl, 10 min, compounds of formula B, read-out: EC50.

For orientation: EC50 means the concentration at which the effect is half-maximal. With `CC(C)(C)CC(=O)Nc1ccc(OCc2ccc(F)cc2)cc1N` [I, N-(2-amino-4-(4-fluorobenzyloxy)phenyl)-3,3-dimethylbutanamide], the EC50 under setting [1] was below 2000 nM.
Regarding `CC(C)(C)CC(=O)Nc1ccc(OCc2ccc(F)c(F)c2)cc1N` [II, N-(2-amino-4-(3,4-difluorobenzyloxy)phenyl)-3,3-dimethylbutanamide], the EC50 under setting [1] was below 2000 nM.
Turning to `CC(C)(C)CC(=O)Nc1ccc(OCc2ccc(Cl)s2)cc1N` [III, N-(2-amino-4-((5-chlorothiophen-2-yl)methoxy)phenyl)-3,3-dimethylbutanamide], the EC50 under setting [1] was below 2000 nM.
Turning to `COC(=O)Nc1ccc(OCc2ccc(F)cc2)cc1N` [V, Methyl 2-amino-4-(4-fluorobenzyloxy)phenylcarbamate], the EC50 under setting [2] was below 15000 nM.
For `CCOC(=O)Nc1ccc(NCc2ccc(F)cc2)nc1N` [flupirtine], the EC50 by setting is: under setting [1], below 15000 nM; under setting [2], below 15000 nM.
With `CCOC(=O)Nc1ccc(NCc2ccc(F)cc2)cc1N` [retigabine, N-[2-amino-4-(4-fluorobenzylamino)phenyl]carbamic acid, ethyl ester], the EC50 is below 2000 nM. The half-maximal effective concentration (EC50) (Rb+ efflux, PC-12 cells, depolarization buffer 15 mM KCl, 10 min, compounds of formula B) is below 2000 nM.
